Patent US4163844A, “Nitrogen-containing heterocyclic compounds” (Yamanouchi Pharmaceutical Co., Ltd., priority 1976, dated 1979)

What was measured:
[1] = system: acetic acid-induced writhings; assay: Whittle's method: acetic acid-induced writhings; assay type: in vivo, Male ICR-Mice
Description: (§1) Male ICR-Mice (weighting 25-35 g.), one group being 12 mice, fasted overnight were used in this test. The sample was orally administered, and 20 minutes after, 5 ml./Kg. of 0.4% Evance blue was injected intravenously and further 10 minutes after, 10 ml./Kg. of 0.6% acetic acid was injected intraperitoneally. The number of writhings after 20 minutes since the administration of acetic acid was recorded and further 10 minutes after since then, the mice were killed by dislocation of the neck, the dye leaked in the abdominal cavity was washed out with 5 ml. of 0.9% saline to make the total amount 10 ml., and thereafter furs, blood corpuscles, etc., intermingled were removed by centrifugal separation at 3,000 r.p.m. for 5 minutes. Furthermore, for preventing turbidity caused by protein, 0.1 ml. of an aqueous 0.1 normal sodium hydroxide was added and then the absorbance at 590 nm was measured. The inhibition ratio of the sample administered rat groups to control groups was calculated.
(§2) In addition, the test samples used in the aforesaid tests (a), (b), (c) and (d) were prepared by suspending the test compounds, in the cases of using the compounds of Test Nos. 1-12 and phenylbutazone, in an aqueous 0.5% methyl cellulose solution, dissolving the test compounds, in the cases of using aminopyrine, in distilled water.

[2] = system: Carrageenin-induced edema; assay: Carrageenin-induced edema (Winter's method); assay type: in vivo, Male Wister rats; details: oral, one hour before carrageenin, edema 3 hours after injection
Description: Male Wister rats (weighting 130-170 g.), one group being 6 rats, fasted overnight were used. According to Winter's method [Proc. Soc. […] After 3 hours, each rat was sacrificed by chloroform and the hind paw was cut and weighed immediately. By using the value obtained by subtracting the weight of the untreated hind paw from the weight of the hind paw having injected thereto the carrageenin as the weight of edema, the inhibitory ratio of the sample administered rat groups to control groups was calculated. The sample was orally administered before one hour of the injection of carrageenin.
as §2

[3] = system: Permeability (dye leakage into abdominal cavity); assay: Whittle's method: permeability (dye leaked in the abdominal cavity); assay type: in vivo, Male ICR-Mice
Description: as §1, §2

[4] = system: Hyperthermia caused by Brewer's yeast; assay: Antipyretic effect (Brewer's yeast hyperthermia); assay type: in vivo, Male Wister rats; parameters: key: rectal body temperature in °C; details: in °C (unit assumed)
Description: Male Wister rats (weighting 130-150 g.), one group being 5 rats, were used. Hyperthermia was caused by subcutaneous injection of 2 ml./rat of 20% Brewer's yeast suspension. 18 hours later, the rats showing a rise in temperature exceeding 1° C. were selected and allocated into groups each consisting of 5 rats. The sample was orally administered and then the body temperature was measured with the passage of time for 6 hours since then. In addition, the body temperature was measured by measuring the temperature in the rectum by means of a thermister thermometer.
as §2

Acute toxicity = assay type: in vivo, Male Wister rats; details: 500 mg/kg oral, observed 7 days; deaths/animals
Description: Male Wister rats (weighting 130-170 g.), one group being 5 rats, fasted overnight were used in this test.
as §2

[5] = 1 hour, 50mg/kg P.O., * significantly different from before administration (P<0.05)
[6] = 2 hours, 50mg/kg P.O., * significantly different from before administration (P<0.05)
[7] = 4 hours, 50mg/kg P.O., * significantly different from before administration (P<0.05)
[8] = 6 hours, 50mg/kg P.O., * significantly different from before administration (P<0.05)
[9] = before administration, group dosed 50mg/kg P.O.

For “2-acetoxy-5-oxo-2,3-dihydro-5H-thiazolo[3,2-b]isoquinoline [Example 9]”, the “Inhibition, Writhings” value ([1]; 50mg/kg P.O.) was 82.9% and the “Inhibition (carrageenin-induced edema)” value ([2]; 25 mg/kg) was 53.4%.
In the case of “3-methyl-5-oxo-2,3-dihydro-5H-thiazolo[3,2-b]isoquinoline [Example 1]”, the “Inhibition, Permeability” value ([3]; 25mg/kg P.O.) is reported as 26.2%, the “Inhibition, Permeability” value ([3]; 50mg/kg P.O.) is reported as 21.3% and the “Inhibition, Writhings” value ([1]; 25mg/kg P.O.) is reported as 24.8%. The “Inhibition, Writhings” value ([1]; 50mg/kg P.O.) was 57.8%.
With “5-oxo-2,3-dihydro-5H-thiazolo[3,2-b]isoquinoline-1,1-dioxide [Example 8]” the “Inhibition, Permeability” value ([3]; 50mg/kg P.O.) was 23.5% and the “Inhibition (carrageenin-induced edema)” value ([2]; 25 mg/kg) was 57.5%.
For “5-oxo-5H-thiazolo[3,2-b]isoquinoline [Example 10]”, the “Inhibition, Permeability” value ([3]; 50mg/kg P.O.) was 32.4%, the “Inhibition, Writhings” value ([1]; 50mg/kg P.O.) was 91.6% and the “Inhibition (carrageenin-induced edema)” value ([2]; 25 mg/kg) was 58.0%.
With “5-oxo-5H-thiazolo[3,2-b]isoquinoline-1,1-dioxide [Example 5]” the “Inhibition, Permeability” value ([3]; 25mg/kg P.O.) was 22.6%, the “Inhibition, Permeability” value ([3]; 50mg/kg P.O.) was 36.0% and the “Inhibition (carrageenin-induced edema)” value ([2]; 25 mg/kg) was 55.3%. For the same compound, the “Inhibition (carrageenin-induced edema)” value ([2]; 50 mg/kg) was 67.2%.
In the case of “6-oxo-2,3-dihydro-2H,6H-1,3-oxazino[3,2-b]isoquinoline [Example 2]”, the “Inhibition, Permeability” value ([3]; 25mg/kg P.O.) is reported as 4.7%, the “Inhibition, Permeability” value ([3]; 50mg/kg P.O.) is reported as 20.1% and the “Inhibition, Writhings” value ([1]; 25mg/kg P.O.) is reported as 22.6%. For the same compound, the “Inhibition, Writhings” value ([1]; 50mg/kg P.O.) was 14.4%, the “Inhibition (carrageenin-induced edema)” value ([2]; 25 mg/kg) was 41.7% and the “Inhibition (carrageenin-induced edema)” value ([2]; 50 mg/kg) was 71.2%.
In the case of “6-oxo-3,4-dihydro-2H,6H-1,3-thiazino[3,2-b]isoquinoline [Example 3]”, the “Inhibition, Permeability” value ([3]; 50mg/kg P.O.) is reported as 37.0%, the “Inhibition, Writhings” value ([1]; 50mg/kg P.O.) is reported as 67.5% and the “Inhibition (carrageenin-induced edema)” value ([2]; 25 mg/kg) is reported as 47.0%. The “Inhibition (carrageenin-induced edema)” value ([2]; 50 mg/kg) was 74.0%.
For “6-oxo-3,4-dihydro-2H,6H-1,3-thiazino[3,2-b]isoquinoline-1,1-dioxide [Example 7]”, the “Inhibition, Permeability” value ([3]; 50mg/kg P.O.) was 38.6%, the “Inhibition, Writhings” value ([1]; 50mg/kg P.O.) was 69.5% and the “Inhibition (carrageenin-induced edema)” value ([2]; 25 mg/kg) was 57.0%.
With “6-oxo-3,4-dihydro-2H,6H-1,3-thiazino[3,2-b]isoquinoline-1-oxide [Example 6]” the “Inhibition, Permeability” value ([3]; 50mg/kg P.O.) was 37.1%, the “Inhibition, Writhings” value ([1]; 50mg/kg P.O.) was 28.8% and the “Inhibition (carrageenin-induced edema)” value ([2]; 25 mg/kg) was 57.1%.
For `Cc1c(N(C)C)c(=O)n(-c2ccccc2)n1C` [Aminopyrine, reference compound], the “Inhibition, Permeability” value ([3]; 25mg/kg P.O.) was 28.5%, the “Inhibition, Permeability” value ([3]; 50mg/kg P.O.) was 41.7% and the “Inhibition, Writhings” value ([1]; 25mg/kg P.O.) was 29.6%. For the same compound, the “Inhibition, Writhings” value ([1]; 50mg/kg P.O.) was 58.1%, the “Rectal temperature (mean±SE)” value [4, 5] was 37.92±0.09 and the “Rectal temperature (mean±SE)” value [4, 6] was 37.49±0.10. The “Rectal temperature (mean±SE)” value [4, 7] was 37.39±0.07, the “Rectal temperature (mean±SE)” value [4, 8] was 37.76±0.19 and the “Rectal temperature (mean±SE)” value [4, 9] was 39.24±0.14.
For `O=c1c2ccccc2cc2n1CC[S+]2[O-]` (stereo not drawn) [Example 4, 5-oxo-2,3-dihydro-5H-thiazolo[3,2-b]isoquinoline-1-oxide], the “Inhibition, Permeability” value ([3]; 25mg/kg P.O.) was 22.1%, the “Inhibition, Permeability” value ([3]; 50mg/kg P.O.) was 41.1% and the “Inhibition, Writhings” value ([1]; 25mg/kg P.O.) was 29.1%. For the same compound, the “Inhibition, Writhings” value ([1]; 50mg/kg P.O.) was 39.7%, the “Inhibition (carrageenin-induced edema)” value ([2]; 25 mg/kg) was 41.2% and the “Inhibition (carrageenin-induced edema)” value ([2]; 50 mg/kg) was 65.1%.
For `CCCCC1C(=O)N(c2ccccc2)N(c2ccccc2)C1=O` [Phenylbutazone, reference compound], the “Inhibition (carrageenin-induced edema)” value ([2]; 25 mg/kg) was 29.4% and the “Inhibition (carrageenin-induced edema)” value ([2]; 50 mg/kg) was 44.5%.
In the case of `O=c1c2ccccc2cc2n1CCCS2` [Test No. 1], the “Inhibition (carrageenin-induced edema)” value ([2]; 25 mg/kg) is reported as 54.8%, the “Inhibition (carrageenin-induced edema)” value ([2]; 50 mg/kg) is reported as 69.8% and the “Rectal temperature (mean±SE)” value [4, 5] is reported as 38.72±0.13. The “Rectal temperature (mean±SE)” value [4, 6] was 38.20±0.15, the “Rectal temperature (mean±SE)” value [4, 7] was 37.39±0.23 and the “Rectal temperature (mean±SE)” value [4, 8] was 37.44±0.32. For the same compound, the “Rectal temperature (mean±SE)” value [4, 9] was 39.26±0.19.
With `O=c1c2ccccc2cc2n1CCCS2(=O)=O` [Test No. 2] the “Rectal temperature (mean±SE)” value [4, 5] was 39.04±0.23, the “Rectal temperature (mean±SE)” value [4, 6] was 38.41±0.21 and the “Rectal temperature (mean±SE)” value [4, 7] was 37.32±0.31. The “Rectal temperature (mean±SE)” value [4, 8] was 37.55±0.33 and the “Rectal temperature (mean±SE)” value [4, 9] was 38.94±0.14.
For `CC1CSc2cc3ccccc3c(=O)n21` (stereo not drawn) [Test No. 3], the Number of death (Acute toxicity) was 3/5.
With `O=c1c2ccccc2cc2n1CCC[S+]2[O-]` (stereo not drawn) [Test No. 5] the Number of death (Acute toxicity) was 3/5.
For `O=Cc1c2n(c(=O)c3ccccc13)CCCS2` [Test No. 11], the “Inhibition (carrageenin-induced edema)” value ([2]; 25 mg/kg) was 45.9%.
